Measurements published in patent publication US20020002294A1, “Estrogenic compounds as antiangiogenic agents” (priority 1997, published 2002).

Key:
tubulin [1] = assay: inhibition of tubulin polymerization in vitro (turbidity at 350 nm); assay type: biochemical; details: read-out: IC50 (concentration required to inhibit tubulin polymerization by 50%); mean ± S.D.; method of Example 1
Experimental: Anti-mitotic activity can be evaluated by testing the ability of an estradiol derivative to inhibit tubulin polymerization and microtubule assembly in vitro. Microtubule assembly is followed in a Gilford recording spectrophotometer (model 250 or 2400S) equipped with electronic temperature controllers. A reaction mixture (all concentrations refer to a final reaction volume of […]) contains 1.0 M monosodium glutamate (ph 6.6), 1. omg/ml (10 μM) tubulin, 1.0 mM MgCl2, 4% (v/v) dimethylsulfoxide and 20-75μM of a composition to be tested. The 0.24 ml reaction mixtures are incubated for 15 min. at 37° C. and then chilled on ice. After addition of 10p1 2.5mM GTP, the reaction mixture is transferred to a cuvette at 0° C., and a baseline established. At time zero, the temperature controller of the spectrophotometer is set at 37° C. Microtubule assembly is evaluated by increased turbity at 350 nm.
A. Each reaction mixture (all concentrations refer to the final reaction volume of 0.25 ml) contained 1.0 M monosodium glutamate (pH 6.6), 1.0 mg/ml (10 μM) tubulin, 1.0 mM MgCl2, 4% (v/v) dimethylsulfoxide, and either 0 (curve 1), 20μM (curve 2), 40 μM (curve 3), or 75 μM (curve 4) 2-methoxyestradiol. The 0.24 ml reaction mixtures were incubated for 15 min. at 37° C and chilled on ice. After addition of 10 μl of 2.5 mM GTP the reaction mixtures were transferred to cuvettes held at 0° C., and baselines were established. At time zero the temperature controller was set at 37° C. At the times indicated by the vertical dashed lines the temperature controller was set at the indicated temperatures.
B. Each reaction mixture contained 0.8 M monosodium glutamate (pH 6.6), 1.2 mg/ml (12 μM) tubulin, 4% (v/v) dimethylsulfoxide, and either 0 (curve 1), 1.0 FM (curve 2), 2.0 ,M (curve 3), 3.0 μM (curve 4), or 4.0 μM (curve 5) 2-methoxyestradiol. The 0.24 ml reaction mixtures were incubated for 15 min. at 26° C. and chilled on ice. After addition of 10μl of 10 mM GTP the reaction mixtures were transferred to cuvettes held at 0° C., and baselines were established. At time zero the temperature controller was set at 26° C. At the time indicated by vertical dashed line the temperature controller was set at 0° C.
The method is given in Example 1.
S.D., standard deviation.

[2] = test system: 8 human breast cancer cell lines; assay: human tumor cell panel assay in vitro, breast panel; assay type: cell-based; set-up: key to Most Sensitive Cell Lines in Human Tumor Cell Panel Assay: Breast: Most sensitive cell panes are marked with ✓; details: for IC50: Homo sapiens, read-out: Tumor Panel: Average log IC50(Molar) against 8 human breast cancer cell lines (converted); for IC50 / Tumor Panel: Average log IC50(Molar) against 8 human breast cancer cell lines: cell panel assay in vitro, two values per cell separated by /; for Most Sensitive Cell Lines in Human Tumor Cell Panel Assay: Breast: 8 cell lines, only MCF-7 and T-47D express estrogen and progesterone receptors
From the text: (§1) The tubulin activities, breast cancer cell line activities, and the cell panels most sensitive to selected analogs are shown in Tables 3 and 4.

tubulin [3] = assay: tubulin activities of 2-ME analogs (Table 3); assay type: biochemical
Melanoma cell lines = assay: Human Tumor Cell Panel Assay in vitro, melanoma panel; assay type: cell-based; set-up: key: Most sensitive cell panes are marked with ✓
From the text: as §1

[4] = test system: Ovarian cell lines (especially OVCAR-3); assay: Human Tumor Cell Panel Assay in vitro, ovarian panel; assay type: cell-based; set-up: key: Most sensitive cell panes are marked with ✓
From the text: as §1

CNS cell lines = assay: Human Tumor Cell Panel Assay in vitro, CNS panel; assay type: cell-based; set-up: key: Most sensitive cell panes are marked with ✓
From the text: as §1

Renal cell lines = assay: Human Tumor Cell Panel Assay in vitro, renal panel; assay type: cell-based; set-up: key: Most sensitive cell panes are marked with ✓
From the text: as §1

[5] = test system: MDA-MB-435 estrogen receptor-negative human breast carcinoma cells; assay: In Vivo Tumor Growth Inhibition; set-up: species or system SCID mice
Experimental: To determine the antitumor activity of 2-ME and derivatives, SCID mice were s.c. inoculated with 10^6 MDA-MB-435 estrogen receptor-negative human breast carcinoma cells. Treatment was initiated on day 12 when tumor volumes reached 75-100 mm3 in volume. Drugs were suspended in 0.5 g/100 ml of carboxymethylcellulose with sterile glass beads, vortexed for 5 minutes, and administered p.o. in a volume of 0.1 ml. Control mice received 0.1 ml of carboxymethylcellulose p.o. Serial caliper measurements of perpendicular diameters were used to calculate tumor volume using the following: (shortest diameter)^2×(longest diameter)×0.52. T/C was calculated as the volume of treated tumors over the volume of control tumors. A smaller number indicates a greater inhibition of tumor growth.

[6] = test system: corneal neovascularization; assay: Mouse Corneal Micropocket Assay; assay type: in vivo, mice; details: daily oral, 5 days
Experimental: Five- to 7-week-old SCID female mice were obtained from Massachusetts General Hospital (Boston, Mass.), Immunocompetent 7-9-week-old female C57BL/6 mice were obtained from ARCH Technical Services, Children's Hospital (Boston, Mass.). All animal studies were conducted according to protocols approved by the Animal Ethics Committee of Children's Hospital. Animals were anesthetized in a methoxyflurane (Pittman-Moore, Mundelein, Ill.) chamber prior to all procedures and were observed until fully recovered. Animals were sacrificed by a lethal dose of methoxyflurane.
Mouse Corneal Micropocket Assay To study the effect of microtubule inhibitors on angiogenesis in vivo, a model of angiogenesis in the mouse cornea was used in […] mice as described previously (Kenyon, B. B., Voest, E. E., Chen, C. C., Folkman, J., and D'Amato, R. J. A model of angiogenesis in the mouse cornea. Invest. Ophthalmol. & Visual Sci., 76: 1625-1632, 1996). In brief, after animals were anesthetized, corneal micropockets were created in both eyes with a modified von Graefe cataract knife. Into each pocket, a 0.4 mm ×0.4 mm×0.2 mm sucrose aluminum sulfate (Bukh Meditee, Copenhagen, Denmark) pellet coated with hydron polymer type NCC (IHN Sciences, New Brunswick, N.J.) containing 80 ng of bFGF or 160 ng of human recombinant […] (gift from Reprogenesis, Cambridge, Mass.) was implanted 1.0-1.2 mm from the limbal vessels (bFGF experiments) or 0.5-0.7 mm from the limbus (VEGF experiments). Erythromycin ointment (E. Fougera, Melville, N.Y.) was applied to each operated eye. The sucralfate acts to stabilize the growth factor and to slow its release from the hydron. Before testing each drug in this assay, we found the maximal dose that could be administered daily for 5 consecutive days without producing signs of toxicity (i.e., no hair loss, diarrhea, infection, lethargy, or weight loss). The treated groups received daily oral administration for 5 consecutive days of the stated dosage of 2-ME or a derivative thereof suspended in 0.5 g/100 ml of carboxymethylcellulose.
Treatment was started on the day of pellet implantation. […] For this purpose, the eyes of the mice were examined by slit-lamp biomicroscopy. Area of corneal neovascularization was calculated using a modified formula for a half-ellipse: Area (mm^2)=[π×clock hours×length (mm)×0.2 mm]. This formula provides the most accurate approximation of the area of neovascularization that grows toward the pellet. (Kenyon, B. B., Voest, E. E., Chen, C. C., Folkman, J., and D'Amato, R. J. A model of angiogenesis in the mouse cornea. Invest. Ophthalmol. & Visual Sci., 76: 1625-1632, 1996).

[7] = 150 mg/kg p.o., duration not stated

SMILES | IC50 (tubulin [1]) | Most Sensitive Cell Lines in Human Tumor Cell Panel Assay: Breast [2] | Most Sensitive Cell Lines in Human Tumor Cell Panel Assay: Ovarian [4] | Most Sensitive Cell Lines in Human Tumor Cell Panel Assay: CNS (CNS cell lines) | IC50 (tubulin [3]) | also measured
COc1c(O)ccc2c1CCC1C2CCC2(C)C(O)CCC12 (stereo not drawn) [4-Methoxyestradiol] | > 40 µM |  |  |  |  | 
C[C@]12CC[C@@H]3c4ccc(O)cc4CC[C@H]3[C@@H]1C[C@@H](O)[C@@H]2O [Estriol] | > 40 µM |  |  |  |  | 
COc1ccc(CCc2cc(OC)c(OC)c(OC)c2)cc1O [Dihydrocombretastatin A-4] | 0.63 ± 0.03 µM |  |  |  |  | 
COc1cc2c(cc1OC)C1CCC3(C)C(O)CCC3C1CC2 (stereo not drawn) [2-Methoxyestradiol-3-0-methyl ether] | > 40 µM |  |  |  |  | 
CC12CCC3c4cc(Br)c(O)cc4CCC3C1CCC2O (stereo not drawn) [2-Bromoestradiol] | 4.5 ± 0.6 µM |  |  |  |  | 
COc1cc2c(cc1O)CCC1C2CCC2(C)C(O)C(O)CC12 (stereo not drawn) [2-Methoxyestriol] | > 40 µM |  |  |  |  | 
COc1ccc2c(c1)CCC1C2CCC2(C)C(O)CCC12 (stereo not drawn) [Estradiol-3-0-methyl ether] | > 40 µM |  |  |  |  | 
CC(=O)Nc1cc2c(cc1O)CCC1C2CCC2(C)C(O)CCC12 (stereo not drawn) [NSC 673651] |  |  |  |  |  | IC50 [2]: 30.9 µM; Tubulin IC50 (tubulin [3]): weak
CCOc1cc2c(cc1O)C(O)C[C@@H]1[C@@H]2CC[C@]2(C)[C@@H](O)CC[C@@H]12 (stereo partly drawn) [NSC 683688] |  | ✓ | ✓ | ✓ |  | Most Sensitive Cell Lines in Human Tumor Cell Panel Assay: Melanoma (Melanoma cell lines): ✓; Tumor Panel: Average log IC50(Molar) against 8 human breast cancer cell lines [2]: −6.3 log Molar; Most Sensitive Cell Lines in Human Tumor Cell Panel Assay: Renal (Renal cell lines): ✓
C#CC1(O)CCC2C3CCc4cc(O)c(OC)cc4C3CCC21C (stereo not drawn) [2-Methoxy-17-ethynylestradiol] | > 40 µM |  |  |  |  | 
CCOc1cc2c(cc1O)CCC1C2CCC2(C)C(O)CCC12 (stereo not drawn) [NSC 671043] |  | ✓ | ✓ | ✓ |  | IC50 [2]: 0.0316 µM; Tumor Panel: Average log IC50(Molar) against 8 human breast cancer cell lines [2]: −7.7 log Molar; T/C (volume of treated tumors over volume of control tumors) [5, 7]: 0.9
CC12CCC3c4cc(OCC(F)(F)F)c(O)cc4CCC3C1CCC2O (stereo not drawn) [NSC 678473] |  |  |  |  | 1.7 µM | IC50 [2]: 0.794 µM; Tumor Panel: Average log IC50(Molar) against 8 human breast cancer cell lines [2]: −5.8 log Molar
CC#Cc1cc2c(cc1O)CCC1C2CCC2(C)C(O)CCC12 (stereo not drawn) [NSC 682429] |  | ✓ | ✓ | ✓ | 2.2 µM | T/C (volume of treated tumors over volume of control tumors) ([5]; 44 days at 225 mg/kg p.o.): 0.25; tumor growth inhibition, comparison in words (FIG. 4) ([5]; FIG. 4): most effective tumor inhibiting compound tested; inhibition in corneal pocket assay ([6]; 300 mg/kg): 34%
CC12CCC3c4cc(F)c(O)cc4CCC3C1CCC2O (stereo not drawn) [2-Fluoroestradiol] | 27 ± 6 µM |  |  |  |  | 
CCOc1cc2c(cc1O)C(=O)CC1C2CCC2(C)C(O)CCC12 (stereo not drawn) [NSC 679431] |  | ✓ | ✓ | ✓ | 4.8 µM | Most Sensitive Cell Lines in Human Tumor Cell Panel Assay: Melanoma (Melanoma cell lines): ✓; T/C (volume of treated tumors over volume of control tumors) [5, 7]: 0.9; Most Sensitive Cell Lines in Human Tumor Cell Panel Assay: Renal (Renal cell lines): ✓
C=Cc1cc2c(cc1O)CCC1C2CCC2(C)C(O)CCC12 (stereo not drawn) [NSC 667049] |  | ✓ | ✓ | ✓ | 5.2 ± 1 µM | Most Sensitive Cell Lines in Human Tumor Cell Panel Assay: Melanoma (Melanoma cell lines): ✓; IC50 [2]: 2.51 µM; Most Sensitive Cell Lines in Human Tumor Cell Panel Assay: Renal (Renal cell lines): ✓
COc1ccc2c(c1OC)CCC1C2CCC2(C)C(O)CCC12 (stereo not drawn) [4-Methoxyestradiol-3-0-methyl ether] | > 40 µM |  |  |  |  | 
C[C@]12CC[C@@H]3c4cc(OCC(F)(F)F)c(O)cc4C(=O)C[C@H]3[C@@H]1CC[C@@H]2O [NSC 681684] |  |  |  |  | 6 µM | Tumor Panel: Average log IC50(Molar) against 8 human breast cancer cell lines [2]: −5.06 log Molar; inhibition in corneal pocket assay ([6]; 225 mg/kg): 36%
CC=Cc1cc2c(cc1O)CCC1C2CCC2(C)C(O)CCC12 (stereo not drawn) [NSC 667047] |  | ✓ | ✓ | ✓ | 1.2 ± 0.1 µM | Most Sensitive Cell Lines in Human Tumor Cell Panel Assay: Melanoma (Melanoma cell lines): ✓; IC50 [2]: 0.1 µM; Tumor Panel: Average log IC50(Molar) against 8 human breast cancer cell lines [2]: −6.9 log Molar; T/C (volume of treated tumors over volume of control tumors) ([5]; 29 days at 75 mg/kg p.o.): 0.40; Most Sensitive Cell Lines in Human Tumor Cell Panel Assay: Renal (Renal cell lines): ✓
